The text below walks through data of the NIST ThermoML archive (doi:10.1021/je8002207).

For series [1] the following is noted: Crystal; DTA.
Series [2] in a line: Molar enthalpy of transition or fusion. The note with it: Crystal; DSC.

SMILES strings stand for the structures. Numbers after ± are expanded uncertainties.

Regarding `CN[C@@]1(c2ccccc2Cl)CCCCC1=O` [(R)-ketamine], the Normal melting temperature in series [1] amounted to 121.0 ± 0.5 °C. For the same compound, the “Molar enthalpy of transition or fusion” value in series [2] was 6.86 ± 0.198 kcal/mol.

Consider `CN[C@]1(c2ccccc2Cl)CCCCC1=O` [(S)-ketamine], for which, in series [1], the Normal melting temperature turned out to be 121.0 ± 0.5 °C. The “Molar enthalpy of transition or fusion” value in series [2] is 6.86 ± 0.198 kcal/mol.
